Test [1] concerns the target Sodium-dependent dopamine transporter (Homo sapiens, UniProt Q01959). Nature of the test: DRUGMATRIX: Dopamine Transporter radioligand binding (ligand: [125I] RTI-55). Type of test: cell membranes, CHO-K1, Membrane. To be noted: cho-k1; Not Active = under 50% inhibition at 10 µM.
The target in test [2] is Kappa-type opioid receptor (Homo sapiens, UniProt P41145). Nature of the test: DRUGMATRIX: Opiate kappa (OP2, KOP) radioligand binding (ligand: [3H] Diprenorphine). Type of test: cell membranes, HEK293, Membrane. To be noted: hek293; Not Active = under 50% inhibition at 10 µM.
Chain of Kappa-type opioid receptor (P41145 whole entry): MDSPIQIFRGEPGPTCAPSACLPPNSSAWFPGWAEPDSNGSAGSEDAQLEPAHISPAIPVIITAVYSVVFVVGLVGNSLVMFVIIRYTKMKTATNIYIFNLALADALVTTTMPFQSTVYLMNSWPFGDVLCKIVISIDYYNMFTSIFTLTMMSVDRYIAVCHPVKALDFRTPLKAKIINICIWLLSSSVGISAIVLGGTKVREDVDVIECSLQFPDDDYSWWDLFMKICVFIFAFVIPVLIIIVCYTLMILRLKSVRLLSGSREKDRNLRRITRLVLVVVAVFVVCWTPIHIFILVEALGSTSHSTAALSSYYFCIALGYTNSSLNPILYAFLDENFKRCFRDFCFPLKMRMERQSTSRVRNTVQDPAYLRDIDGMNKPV
Test [3] has as its target T1, Cathepsin G (Homo sapiens, UniProt P08311).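 Note: inhibition of Cathepsin G enzyme activity, tested on an AMC-conjugated peptide substrate; in other assays of this panel Not Active means under 50% inhibition at 10 µM.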
T1 sequence (P08311 whole entry): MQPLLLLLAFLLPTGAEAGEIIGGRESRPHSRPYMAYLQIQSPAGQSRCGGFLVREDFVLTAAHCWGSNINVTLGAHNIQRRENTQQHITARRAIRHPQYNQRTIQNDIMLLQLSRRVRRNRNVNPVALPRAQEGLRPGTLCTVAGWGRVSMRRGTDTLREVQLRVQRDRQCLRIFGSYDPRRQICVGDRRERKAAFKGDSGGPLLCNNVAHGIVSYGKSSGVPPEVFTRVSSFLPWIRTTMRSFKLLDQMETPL
Type of test: tissue-based. To be noted: neutrophil.

Test [4] in a line: DRUGMATRIX: Glutamate, Kainate radioligand binding (ligand: [3H] Kainic acid). The format is cell membranes, Rattus norvegicus, Wistar, Brain, Membrane. To be noted: Not Active = under 50% inhibition at 10 µM.
For test [5], the target named is T2, Cholecystokinin receptor type A (Homo sapiens, UniProt P32238). Note: in other assays of this panel Not Active means under 50% inhibition at 10 µM.
T2 sequence (P32238 whole entry): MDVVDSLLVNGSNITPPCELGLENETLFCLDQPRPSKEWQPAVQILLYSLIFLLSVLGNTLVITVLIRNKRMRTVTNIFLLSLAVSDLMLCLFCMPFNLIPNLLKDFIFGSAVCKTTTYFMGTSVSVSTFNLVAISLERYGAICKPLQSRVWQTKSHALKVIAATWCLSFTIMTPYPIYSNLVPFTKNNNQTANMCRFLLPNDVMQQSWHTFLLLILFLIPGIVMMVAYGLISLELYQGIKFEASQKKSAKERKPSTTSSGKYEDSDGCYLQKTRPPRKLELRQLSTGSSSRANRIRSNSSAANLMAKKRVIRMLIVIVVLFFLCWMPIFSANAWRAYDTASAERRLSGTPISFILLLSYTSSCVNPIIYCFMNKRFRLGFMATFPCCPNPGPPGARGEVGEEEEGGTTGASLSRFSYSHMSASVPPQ
The format is cell membranes, Membrane. Particulars: 1321-n1.

The target in test [6] is Receptor tyrosine-protein kinase erbB-2 (Homo sapiens, UniProt P04626). Nature of the test: biochemical. Particulars: for IC50 / Ki: insect cells. Type of test: cell-based, Insect cells.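 For all read-outs here: inhibition of HER2 kinase enzyme activity, measured with Poly(Glu:Tyr) as the phosphorylation substrate; in other assays of this panel Not Active means under 50% inhibition at 10 µM.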
Test [7] concerns the target T3, Glucocorticoid receptor (Homo sapiens, UniProt P04150). Note: in other assays of this panel Not Active means under 50% inhibition at 10 µM.
T3 sequence (P04150 whole entry): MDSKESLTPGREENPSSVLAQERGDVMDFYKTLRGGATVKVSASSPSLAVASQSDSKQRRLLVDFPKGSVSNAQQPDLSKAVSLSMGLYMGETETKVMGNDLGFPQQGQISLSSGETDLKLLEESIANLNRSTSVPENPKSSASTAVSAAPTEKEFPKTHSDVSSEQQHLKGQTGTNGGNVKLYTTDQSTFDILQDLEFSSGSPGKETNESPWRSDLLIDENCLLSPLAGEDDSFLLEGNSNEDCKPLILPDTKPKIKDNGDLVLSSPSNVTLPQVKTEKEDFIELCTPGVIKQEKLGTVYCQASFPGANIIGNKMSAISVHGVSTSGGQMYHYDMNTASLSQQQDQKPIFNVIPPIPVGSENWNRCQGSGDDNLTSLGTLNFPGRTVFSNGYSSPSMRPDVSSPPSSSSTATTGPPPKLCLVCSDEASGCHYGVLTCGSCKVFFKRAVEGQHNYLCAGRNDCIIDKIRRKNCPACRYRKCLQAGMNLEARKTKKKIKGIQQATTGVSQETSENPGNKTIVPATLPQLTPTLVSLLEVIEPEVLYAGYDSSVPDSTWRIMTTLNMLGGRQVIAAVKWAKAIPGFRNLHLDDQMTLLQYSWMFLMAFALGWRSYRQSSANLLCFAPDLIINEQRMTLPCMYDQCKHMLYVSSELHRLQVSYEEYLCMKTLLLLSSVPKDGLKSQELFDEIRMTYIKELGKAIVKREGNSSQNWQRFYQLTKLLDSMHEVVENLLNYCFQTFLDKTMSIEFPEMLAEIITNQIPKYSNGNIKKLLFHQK
To be noted: hela s3.

Test [8] can be described thus: DRUGMATRIX: Leukotriene, BLT (LTB4) radioligand binding (ligand: [3H]LTB4). Type of test: cell membranes, Membrane. Particulars: u-937; Not Active = under 50% inhibition at 10 µM.

pIC50, pKi: −log10 of the molar value.

We go through 15 compounds from ChEMBL document CHEMBL1909046, “DrugMatrix in vitro pharmacology data”.

Chain of Sodium-dependent dopamine transporter (Q01959 whole entry): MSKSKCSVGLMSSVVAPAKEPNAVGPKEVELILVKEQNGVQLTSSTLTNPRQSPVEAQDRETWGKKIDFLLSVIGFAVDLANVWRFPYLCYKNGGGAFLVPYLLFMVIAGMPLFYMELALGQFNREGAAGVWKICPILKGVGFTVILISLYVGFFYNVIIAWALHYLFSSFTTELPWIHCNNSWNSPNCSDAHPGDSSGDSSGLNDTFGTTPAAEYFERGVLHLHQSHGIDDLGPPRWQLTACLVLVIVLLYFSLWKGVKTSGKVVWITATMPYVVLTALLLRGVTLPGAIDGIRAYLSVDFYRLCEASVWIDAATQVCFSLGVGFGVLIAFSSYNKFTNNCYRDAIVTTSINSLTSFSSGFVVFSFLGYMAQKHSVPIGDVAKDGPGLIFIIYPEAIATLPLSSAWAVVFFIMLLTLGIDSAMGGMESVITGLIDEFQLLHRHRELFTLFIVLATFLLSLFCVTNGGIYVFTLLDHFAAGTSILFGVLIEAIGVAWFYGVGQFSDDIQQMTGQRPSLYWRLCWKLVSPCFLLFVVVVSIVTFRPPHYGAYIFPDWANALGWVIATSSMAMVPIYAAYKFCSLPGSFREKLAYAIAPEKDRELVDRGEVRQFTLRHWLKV

Regarding `O=C(c1ccccc1C(F)(F)F)N1CCC(Cc2ccccc2)CC1`, the IC50 result in test [1], in test [2], in test [3], in test [4], in test [5] and in test [6] was “Not Active” throughout. Further, the IC50 entry in test [7] and in test [8] was “Not Active” each time. Moreover, the Ki result in test [4] and in test [8] was “Not Active” in each case.
With `O=C/C=C/c1ccccc1`, the IC50 entry in test [1], in test [3], in test [4], in test [5], in test [6] and in test [7] was “Not Active” each time. The IC50 entry in test [8] is recorded as “Not Active”. For the same compound, the Ki result in test [4] and in test [8] was “Not Active” in each case.
Turning to `Nc1ccc2c3c(cccc13)C(=O)NC2=O`, the IC50 entry in test [1], in test [2], in test [3], in test [4], in test [5] and in test [6] was “Not Active” each time. In addition, the IC50 entry in test [7] and in test [8] was “Not Active” in each case. For the same compound, the Ki entry in test [4] and in test [8] was “Not Active” each time.
Regarding `COc1ccc(C(=O)N2CCCC2=O)cc1`, the IC50 entry in test [1], in test [2], in test [3], in test [4], in test [5] and in test [6] was “Not Active” each time. Moreover, the IC50 result in test [7] and in test [8] was “Not Active” in each case. Besides, the Ki entry in test [4] and in test [8] was “Not Active” each time.
On to `Cc1nnc2n1-c1ccc(Cl)cc1C(c1ccccc1)=NC2` [ALPRAZOLAM], for which the IC50 result in test [1], in test [3], in test [4], in test [5], in test [6] and in test [7] was “Not Active” each time. The IC50 entry in test [8] is recorded as “Not Active”. Further, the Ki entry in test [4] and in test [8] was “Not Active” in each case.
For `C[C@@H](CO)NC(=O)[C@@H]1C=C2c3cccc4[nH]cc(c34)C[C@H]2N(C)C1` [ERGONOVINE], the IC50 entry in test [1], in test [3], in test [4], in test [6], in test [7] and in test [8] was “Not Active” in each case. Further, the Ki result in test [4] and in test [8] was “Not Active” in each case.
Consider `NC(=O)C[S+]([O-])C(c1ccccc1)c1ccccc1` (stereo unspecified) [MODAFINIL], for which the IC50 entry in test [2], in test [3], in test [4], in test [5], in test [6] and in test [7] was “Not Active” in each case. The IC50 entry in test [8] is “Not Active”. Besides, the Ki result in test [4] and in test [8] was “Not Active” each time.
With `CC(=O)O[C@H]1C(=O)[C@@]2(C)[C@H]([C@H](OC(=O)c3ccccc3)[C@]3(O)C[C@H](OC(=O)[C@H](O)[C@@H](NC(=O)c4ccccc4)c4ccccc4)C(C)=C1C3(C)C)[C@]1(OC(C)=O)CO[C@@H]1C[C@@H]2O` [PACLITAXEL], the IC50 entry in test [1], in test [2], in test [3], in test [4], in test [7] and in test [8] was “Not Active” in each case. In addition, the Ki entry in test [4] and in test [8] was “Not Active” in each case. Besides, the pIC50 in test [6] (read-out: IC50) is 4.95.
`C[n+]1ccc(-c2cc[n+](C)cc2)cc1.[Cl-].[Cl-]` [PARAQUAT DICHLORIDE]: the IC50 entry in test [1], in test [3], in test [4], in test [5], in test [6] and in test [7] was “Not Active” in each case. Further, the IC50 result in test [8] was “Not Active”. In addition, the Ki entry in test [4] and in test [8] was “Not Active” each time.
`C[C@@H]1O[C@@H](O[C@@H]2C=C3CC[C@@H]4[C@H](CC[C@]5(C)[C@@H](c6ccc(=O)oc6)CC[C@]45O)[C@@]3(C)CC2)[C@H](O)[C@H](O)[C@H]1O` [PROSCILLARIDIN]: the IC50 result in test [1], in test [3], in test [4], in test [5], in test [6] and in test [7] was “Not Active” in each case. For the same compound, the IC50 entry in test [8] is “Not Active”. Besides, the Ki result in test [4] and in test [8] was “Not Active” in each case.
Take AURANOFIN: the IC50 result in test [1], in test [3], in test [4], in test [5], in test [6] and in test [8] was “Not Active” each time. Also, the Ki entry in test [1], in test [3], in test [4], in test [5], in test [6] and in test [8] was “Not Active” throughout. In test [7], the negative logarithm of the Ki (pKi) was 6.22.
On to GADOPENTETATE DIMEGLUMINE, for which the IC50 result in test [1], in test [3], in test [4], in test [5], in test [6] and in test [7] was “Not Active” in each case. Also, the IC50 entry in test [8] is on record as “Not Active”. Also, the Ki entry in test [1], in test [3], in test [4], in test [5], in test [6] and in test [7] was “Not Active” throughout. Also, the Ki result in test [8] is “Not Active”.
In the case of GENTAMICIN, the IC50 entry in test [1], in test [3], in test [4], in test [5], in test [6] and in test [7] was “Not Active” throughout. Also, the IC50 entry in test [8] is “Not Active”. Moreover, the Ki result in test [1], in test [3], in test [4], in test [5], in test [6] and in test [7] was “Not Active” each time. In addition, the Ki result in test [8] is given as “Not Active”.
For the compound GRAMICIDIN, the IC50 result in test [1], in test [3], in test [4], in test [5], in test [6] and in test [7] was “Not Active” each time. Also, the IC50 result in test [8] is listed as “Not Active”. The Ki entry in test [1], in test [3], in test [4], in test [5], in test [6] and in test [7] was “Not Active” in each case. The Ki result in test [8] is reported as “Not Active”.
Consider NYSTATIN, for which the IC50 result in test [1], in test [3], in test [4], in test [5], in test [6] and in test [7] was “Not Active” each time. For the same compound, in test [8], the IC50 result was “Not Active”. The Ki result in test [1], in test [3], in test [4], in test [5], in test [6] and in test [7] was “Not Active” in each case. Besides, the Ki result in test [8] was “Not Active”.
